Like-named read-outs stand apart in the source and are kept apart here.
Tests used:
NCI-H522 cells = assay: Cytotoxicity (methylene blue cell viability), NCI-H522; format: cell-based, human; conditions: for IC50: Homo sapiens
Experimental: (§1) Having synthesized the CETZOLE analogs, their cytotoxic activity was evaluated. […] NCI-H522 RV-GFP is the corresponding control with RV-GFP tag, but without SLC7A11 overexpression. […] The cytotoxicity screening was conducted as described previously.
(§2) Cell lines were cultured in a humidified atmosphere containing 10% CO2 in Dulbecco's modified Eagle's medium (Mediatech, Inc) supplemented with 10% fetal bovine serum (Atlanta Biologicals). Cell types used MEFs, HT1080 (human fibrosarcoma cells), NARF2 (osteosarcoma), WI-38 (human embryonic lung fibroblast), MDA MB 231 (breast cancer), HCT-116 (human colon), and NCI-H522 (Non-Small Cell Lung Cancer) cell lines. To determine viability throughout these examples, 5,000 cells were plated per well of a 96-well plate and drugs were added 1 day later. Cells were stained 1 to 3 days later with a saturated solution of methylene blue in 50% ethanol. Plates were rinsed and retained dye was quantified by spectrophotometry. Absorbance was normalized to DMSO and given as 1 or 100% for cell viability. Results are representative of at least two independent experiments. Statistical significance was assessed using the Student's t test. All commercially available chemicals were obtained from Cayman Chemicals unless otherwise noted.

HT-1080 cells = assay: Cytotoxicity (methylene blue cell viability), HT-1080; format: cell-based, human; conditions: Homo sapiens
Experimental: as §1, §2

MDA-MB-231 cells = assay: Cytotoxicity (methylene blue cell viability), MDA-MB-231; format: cell-based; conditions: Homo sapiens
Experimental: as §1, §2

[1] = test system: protein bands between 25 kD to 38 kD; assay: Competitive binding assay against probe PPd (in-gel fluorescence); conditions: 20 μM concentration; bands 25 kD to 38 kD
[2] = test system: NCI-H522 GFP-SLC7A11 #8 cells; assay: Cytotoxicity (methylene blue cell viability), NCI-H522 clone overexpressing GFP-SLC7A11; format: cell-based, human; conditions: Homo sapiens; Table 1; NCI-H522 clone overexpressing GFP-tagged SLC7A11; read-out: Half maximal inhibitory concentration (IC50), NCI-H522 GFP-SCL7A11 #8
Experimental: as §1, §2

NCI-H522 RV-GFP cells = assay: Cytotoxicity (methylene blue cell viability), NCI-H522 RV-GFP control clone; format: cell-based, human; conditions: Homo sapiens, NCI-H522; Table 1; control clone with RV-GFP tag; read-out: Half maximal inhibitory concentration (IC50), NCI-H522 Rv-GFP
Experimental: as §1, §2

NARF2 cells = assay: Cytotoxicity (methylene blue cell viability), NARF2; format: cell-based, human; conditions: Homo sapiens; Table 1; NARF2 osteosarcoma cells; read-out: Half maximal inhibitory concentration (IC50), NARF2
Experimental: as §1, §2

[3] = test system: NCI-H522, NCI-H522 GFP-SLC7A11 #8, NCI-H522 RV-GFP, HT-1080, NARF2 and MDA-MB 231 cell lines; assay: Cytotoxicity screening across the tested cell lines; format: cell-based; conditions: summary over all tested cell lines; read-out: IC50 values against the tested cell lines
Experimental: as §1, §2

WI38 cells = assay: Cytotoxicity on normal cell line WI38; format: cell-based, human; conditions: Homo sapiens, WI-38; Table 2; lung tissue fibroblast; read-out: Half maximal inhibitory concentration (IC50), Normal Cell Line WI38
Experimental: (§3) To determine cytotoxicity at a therapeutically more relevant concentration, cells were treated at a single concentration of […] (FIG. 12).
as §2

[4] = test system: MEFs (Mouse Embryonic Fibroblasts); assay: Cytotoxicity on normal cell line MEFs; format: cell-based; conditions: Fibroblast; Table 2; Mouse Embryonic Fibroblasts; read-out: Half maximal inhibitory concentration (IC50), Normal Cell Line Mefs
Experimental: as §3, §2

[5] = test system: NCI-H522 and HT-1080 cancer cell lines, WI38 and MEFs normal cell lines; assay: Selective cytotoxicity assay at a single concentration; format: cell-based; design: dose or concentration left out as unconfirmed; conditions: NCI-H522, HT-1080, WI38, MEFs
Experimental: Overall, WI38 cells were the most tolerant to the treatment, whereas MEF cells were partially tolerant and relatively less sensitive than both NCI-H522 and HT-1080 cells. To determine cytotoxicity at a therapeutically more relevant concentration, cells were treated at a single concentration of […] (FIG. 12).
as §2, with “noted. Compound CETZOLE 1 and the analogs were synthesized as highlighted.” for “noted.”

[6] = NCI-H522, Table 3, probes and negative controls, read-out: IC50, NCI-H522
[7] = HT-1080, Table 3, probes and negative controls, read-out: IC50, HT-1080
[8] = MDA-MB-231, Table 3, probes and negative controls, read-out: IC50, MDA-MB-231
[9] = Table 1, NCI-H522 cancer cell line, read-out: Half maximal inhibitory concentration (IC50), NCI-H522
[10] = Table 1, HT-1080 fibrosarcoma cell line, read-out: Half maximal inhibitory concentration (IC50), HT-1080
[11] = Table 1, MDA-MB-231 breast cancer cell line, read-out: Half maximal inhibitory concentration (IC50), MDA-MB-231
[12] = NCI-H522, Table 2, read-out: Half maximal inhibitory concentration (IC50), Cancer Cell Line NCI-H522
[13] = HT-1080, Table 2, read-out: Half maximal inhibitory concentration (IC50), Cancer Cell Line HT1080

Row | Structure (SMILES) | IC50 (NCI-H522 cells; [6]) [µM] | IC50 (HT-1080 cells; [7]) [µM] | IC50 (MDA-MB-231 cells; [8]) [µM] | IC50 (NCI-H522 cells; [9]) [µM] | IC50 [2] [µM] | IC50 (NCI-H522 RV-GFP cells) [µM] | IC50 (HT-1080 cells; [10]) [µM] | IC50 (NARF2 cells) [µM] | IC50 (MDA-MB-231 cells; [11]) [µM] | further results
1 | CC1=C(c2csc(Br)n2)CCC1O (stereo not drawn) [compound 13, 3-(2-Bromothiazol-4-yl)-2-methylcyclopent-2-en-1-ol] | > 20 | > 20 | > 20 |  |  |  |  |  |  | 
2 | O=C(O)c1cc(/N=N/c2ccc(S(=O)(=O)Nc3ccccn3)cc2)ccc1O [sulfasalazine] |  |  |  |  |  |  |  |  |  | competition of PPd-labelled protein bands by known ferroptosis inducers [1]: did not show any significant competition
3 | C#CCO/N=C1\CC(c2csc(Br)n2)=C(C)C1O (stereo not drawn) [NPd, 4-(2-Bromothiazol-4-yl)-2-hydroxy-3-methylcyclopent-3-en-1-one O-prop-2-yn-1-yl oxime] | > 20 | > 20 | > 20 |  |  |  |  |  |  | 
4 | C#Cc1nc(C2=C(C)C(NC(=O)c3cc4ccc(N(CC)CC)cc4oc3=O)CC2)cs1 (stereo not drawn) [PPa, 7-(Diethylamino)-N-(3-(2-ethynylthiazol-4-yl)-2-methylcyclopent-2-en-1-yl)-2-oxo-2H-chromene-3-carboxamide] | 4.56 ± 1.43 | 4.58 ± 0.87 | 1.2 ± 1.03 |  |  |  |  |  |  | IC50 (NCI-H522 cells; cell line not given, value matches NCI-H522 of Table 3, read-out: IC50 (moderate cytotoxicity of PPa)): 4.56 ± 1.43 µM
5 | C#Cc1nc(C2=C(C)C(NC(=O)CCCC[C@@H]3SC[C@@H]4NC(=O)N[C@@H]43)CC2)cs1 (stereo partly drawn) [PPb, N-(3-(2-Ethynylthiazol-4-yl)-2-methylcyclopent-2-en-1-yl)-5-((3aS,4S,6aR)-2-oxohexahydro-1H-thieno[3,4-d]imidazol-4-yl)pentanamide] | 17.9 ± 3.98 | 7.91 ± 1.9 | > 20 |  |  |  |  |  |  | IC50 (NCI-H522 cells; NCI-H522, unit inferred, read-out: IC50 on NCI-H522 cell line): 17.9 ± 3.98 µM; activity relative to CETZOLE 1 (NCI-H522 cells; NCI-H522 cell line): five-fold less active
6 | C#Cc1nc(C2=C(C)C(OC(=O)CCCCCCC)/C(=N/OC(=O)CCCCCCC)C2)cs1 (stereo not drawn) [compound 20e, (E)-3-(2-Ethynylthiazol-4-yl)-2-methyl-5-((octanoyloxy)imino)cyclopent-2-en-1-yl octanoate] |  |  |  | > 20 | > 20 | > 20 | > 20 | > 20 | 19.1 ± 2.8 | IC50 [3]: > 20 µM
7 | CCN(CC)c1ccc2cc(C(=O)NC3CCC(c4csc(Br)n4)=C3C)c(=O)oc2c1 (stereo not drawn) [NPa, N-(3-(2-Bromothiazol-4-yl)-2-methylcyclopent-2-en-1-yl)-7-(diethylamino)-2-oxo-2H-chromene-3-carboxamide] | > 20 | > 20 | > 20 |  |  |  |  |  |  | 
8 | CC1=C(c2csc(Br)n2)CCC1NC(=O)CCCC[C@@H]1SC[C@@H]2NC(=O)N[C@@H]21 (stereo partly drawn) [NPb, N-(3-(2-Bromothiazol-4-yl)-2-methylcyclopent-2-en-1-yl)-5-((3aS,4S,6aR)-2-oxohexahydro-1H-thieno[3,4-d]imidazol-4-yl)pentanamide] | > 20 | > 20 | > 20 |  |  |  |  |  |  | 
9 | C#Cc1nc(C2=C(C)C(=O)/C(=N/O)C2)cs1 [compound 14, (E)-3-(2-Ethynylthiazol-4-yl)-5-(hydroxyimino)-2-methylcyclopent-2-en-1-one] |  |  |  | > 20 | > 20 | > 20 | 5.29 ± 2.6 | > 20 | 8.05 ± 0.63 | IC50 [3]: > 20 µM
10 | C#Cc1nc(C2=C(C)C(O)/C(=N\OCc3ccccc3)C2)cs1 (stereo not drawn) [compound 21, (Z)-4-(2-Ethynylthiazol-4-yl)-2-hydroxy-3-methylcyclopent-3-en-1-one O-benzyl oxime] |  |  |  | 1.18 ± 0.8 | 2.17 ± 1.5 | 3.02 ± 1.7 | 0.93 ± 0.12 | > 20 | 13.4 ± 5.3 | 
11 | C#Cc1nc(C2=C(C)C(=O)/C(=N/OC(C)=O)C2)cs1 [compound 18] |  |  |  | 11 ± 1.53 | > 20 | > 20 | > 20 | > 20 | 18.5 ± 1.7 | IC50 [3]: > 20 µM
12 | C#Cc1nc(C2=C(C)C(O)/C(=N/O)C2)cs1 (stereo not drawn) [compound 19, (E)-4-(2-Ethynylthiazol-4-yl)-2-hydroxy-3-methylcyclopent-3-en-1-one oxime] |  |  |  | 4.68 ± 1.03 | > 20 | 5.55 ± 0.01 | 5.77 ± 0.67 | > 20 | 6.57 ± 0.5 | 
13 | C#Cc1nc(C2=C(C)C(OC(=O)CC)/C(=N/OC(=O)CC)C2)cs1 (stereo not drawn) [compound 20b, (E)-3-(2-Ethynylthiazol-4-yl)-2-methyl-5-((propionyloxy)imino)cyclopent-2-en-1-yl propionate] |  |  |  | 0.12 ± 0.06 | 2.06 ± 0.54 | 0.59 ± 0.22 | 0.15 ± 0.02 | 13.4 ± 3.3 | 0.18 ± 0.03 | IC50 (NCI-H522 cells; [12]): 0.12 ± 0.06 µM; IC50 (HT-1080 cells; [13]): 0.15 ± 0.02 µM; IC50 (WI38 cells): 2.52 ± 0.92 µM; IC50 [4]: 0.28 ± 0.04 µM; cell death at a single concentration [5]: killed only the cancer cell lines NCI-H522 and HT-1080
14 | Cc1onc(C(=O)N2CCN(C(c3ccc(Cl)cc3)c3ccc(Cl)cc3)CC2)c1[N+](=O)[O-] [ML210] |  |  |  |  |  |  |  |  |  | competition of PPd-labelled protein bands by known ferroptosis inducers [1]: compete out the same protein bands
15 | C#Cc1nc(C2=C(C)C(OC(=O)CCC)/C(=N/OC(=O)CCC)C2)cs1 (stereo not drawn) [compound 20c, (E)-5-((Butyryloxy)imino)-3-(2-ethynylthiazol-4-yl)-2-methylcyclopent-2-en-1-yl butyrate] |  |  |  | 0.13 ± 0.09 | 1.93 ± 0.8 | 0.28 ± 0.13 | 0.19 ± 0.09 | 5.95 ± 1.8 | 0.83 ± 0.15 | IC50 (NCI-H522 cells; [12]): 0.13 ± 0.09 µM; IC50 (HT-1080 cells; [13]): 0.19 ± 0.09 µM; IC50 (WI38 cells): 1.19 ± 0.3 µM; IC50 [4]: 0.79 ± 0.04 µM; cell death at a single concentration [5]: killed only the cancer cell lines NCI-H522 and HT-1080
16 | C#CCCC(=O)Nc1ccc(C(=O)c2ccc(NC(=O)CO/N=C3\CC(c4csc(Br)n4)=C(C)C3O)cc2)cc1 (stereo not drawn) [NPe, (E)-N-(4-(4-(2-(((4-(2-Bromothiazol-4-yl)-2-hydroxy-3-methylcyclopent-3-en-1-ylidene)amino)oxy)acetamido)benzoyl)phenyl)pent-4-ynamide] | > 20 | > 20 | > 20 |  |  |  |  |  |  | 

Source: patent US20260199297A1, “FERROPTOSIS INDUCERS TO TREAT CANCER” (The University of Toledo, priority 2022, published 2026)
